{"source": "paper PMC12464775", "about": "“Selective and Potent Peptide Binders of RNF43 for Wnt Signaling Inhibition” (ACS Central Science, 2025)", "key": {"deglycosylated RNF43": {"target": "T1, deglycosylated RNF43 (Homo sapiens, UniProt Q68DV7)", "T1 construct": "ECD of the human RNF43 protein was incubated with EZ-link-NHS-PEG4-biotin; biotin (chemical label, NHS-PEG4-biotin)", "T1 sequence (Q68DV7 24-197)": "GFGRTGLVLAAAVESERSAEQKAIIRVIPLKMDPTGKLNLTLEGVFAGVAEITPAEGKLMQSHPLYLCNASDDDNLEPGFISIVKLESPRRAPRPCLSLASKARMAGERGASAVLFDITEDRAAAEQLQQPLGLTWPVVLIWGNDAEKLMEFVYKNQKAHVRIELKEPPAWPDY", "assay": "SPR binding to deglycosylated RNF43", "details": "biotinylated RNF43 treated with Deglycosylation Mix II, fitted data of representative sensorgram", "procedure": "(§1) SPR measurement was carried out using a Biacore S200 (Cytiva) instrument, with PBS-T (PBS with 0.05% Tween 20, pH 7.4) as the buffer. Biotinylated protein was captured on three sensor channels of Series S SA Sensors (Cytiva). The sensors were then blocked with 0.1 mg/mL biotin. DCPs were injected onto the sensor in a 3× concentration series. The data were double-referenced by subtracting the signal from a sensor channel coated with biotin only and the signal from a buffer injection. For data analysis, binding data were fitted using the manufacturer’s software. ,\nProtein deglycosylation was performed on a small scale using Deglycosylation Mix II (P6044, NEB), according to the manufacturer’s instructions. Briefly, the biotinylated RNF43 was incubated with Deglycosylation Mix II for 1 h at RT. Then the reaction mixture was transferred to 37 °C and further incubated overnight. Following incubation, the reaction mixture was analyzed by mobility shift on SDS-PAGE gels. After dialysis, the protein was then used for further applications."}, "human RNF43": {"target": "T2, human RNF43 (Homo sapiens, UniProt Q68DV7)", "T2 construct": "ECD of the human RNF43 protein was incubated with EZ-link-NHS-PEG4-biotin; biotin (chemical label, NHS-PEG4-biotin on amines, 1-2 per protein)", "T2 sequence (Q68DV7 24-197 limits assumed)": "T1 sequence (Q68DV7 24-197)", "assay": "SPR binding of DCPs to immobilized human RNF43 ECD", "details": "SPR, Biacore S200, biotinylated human RNF43 captured on SA sensor, DCP injected, PBS-T pH 7.4; independently performed at least three times; NB = no binding", "procedure": "ECD of the human RNF43 protein was incubated with EZ-link-NHS-PEG4-biotin (Thermo Fisher, 1:1, 50 μM) for 1 h at room temperature (RT). The reaction was quenched by addition of 10 mM Glycine, followed by dialysis into phosphate buffered saline (PBS) overnight at 4 °C. Finally, the biotinylated protein was analyzed using LC-MS to ensure that each protein is labeled with 1–2 biotin molecules. ,\nas §1"}, "mouse RNF43": {"target": "T3, mouse RNF43 (Mus musculus, UniProt Q5NCP0)", "T3 sequence (Q5NCP0 24-197 limits assumed)": "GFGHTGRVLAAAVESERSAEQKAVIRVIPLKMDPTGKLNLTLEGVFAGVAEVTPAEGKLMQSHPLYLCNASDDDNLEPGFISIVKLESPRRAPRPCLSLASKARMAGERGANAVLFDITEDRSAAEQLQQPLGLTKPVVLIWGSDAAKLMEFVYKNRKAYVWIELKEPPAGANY", "assay": "SPR binding of DCPs to mouse RNF43", "details": "independently performed at least three times", "procedure": "as §1"}}, "note": "Bridge positions count the residues as written; N and C are the ends. Peptide text beside a SMILES is read from it.", "data": [{"compound": "CC[C@H](C)[C@H](NC(=O)[C@@H]1CSSC[C@H](NC(=O)[C@@H](NC(=O)[C@H](Cc2c[nH]cn2)NC(=O)[C@H](CO)NC(=O)[C@H](Cc2ccc(O)cc2)NC(=O)[C@H](CC(=O)O)NC(=O)[C@H](Cc2c[nH]cn2)NC(=O)[C@@H]2CSSC[C@H](NC(=O)[C@H](CCC(N)=O)NC(=O)[C@@H](N)CCC(=O)O)C(=O)N[C@@H]([C@@H](C)O)C(=O)N[C@@H](CO)C(=O)N[C@@H]([C@@H](C)O)C(=O)N[C@@H](CCC(N)=O)C(=O)N[C@@H](CC(=O)O)C(=O)N[C@@H](CC(C)C)C(=O)N2)C(C)C)C(=O)N[C@H]2CSSC[C@H](NC(=O)[C@H](CC(=O)O)NC(=O)[C@H](CC(C)C)NC(=O)[C@@H]3CCCN3C(=O)[C@H](Cc3c[nH]c4ccccc34)NC2=O)C(=O)N[C@@H](CCCNC(=N)N)C(=O)N[C@@H](Cc2c[nH]c3ccccc23)C(=O)N[C@@H](C)C(=O)N[C@@H](C(C)C)C(=O)N[C@@H](CCCCN)C(=O)N[C@@H](Cc2ccc(O)cc2)C(=O)N[C@@H](CCC(N)=O)C(=O)N[C@@H](Cc2c[nH]c3ccccc23)C(=O)N[C@@H](Cc2ccccc2)C(=O)N[C@@H](Cc2c[nH]c3ccccc23)C(=O)N[C@@H](CC(=O)O)C(=O)N1)C(=O)NCC(=O)O", "note": "[GUR-1.6.12.2] (H-EQCTSTQDLCHDYSHVCCWPLDCRWAVKYQWFWDCIG-OH; disulfide 3-10, 17-35, 18-23)", "values": [{"measurement": "KD against deglycosylated RNF43", "setting": "deglycosylated RNF43", "value": "remained unchanged"}, {"measurement": "KD (h, nM)", "setting": "human RNF43", "value": "single-digit nanomolar"}, {"measurement": "Kd", "setting": "mouse RNF43", "value": "2.1 ± 0.2", "unit": "nM"}]}]}
